According to article PMC9429723, “Hypertoxic self-assembled peptide with dual functions of glutathione depletion and biosynthesis inhibition for selective tumor ferroptosis and pyroptosis” (Journal of Nanobiotechnology, 2022):
Where two headings read alike, the source gives them in different places. Each block holds one compound with its values, some of them ahead of it. *: point of attachment. Cbz = O=C(OCc1ccccc1)*; CH2F = FC*

Tests used:
4T1 cells [1] = assay: Rescue of NSBSO-induced cell death by inhibitors, 4T1 cells; format: cell-based, mouse
Procedure: (§1) All cells (8 × 10^3 per well) were plated in 96-well plates at 37 °C and 5% CO2 overnight. Then cells were treated with gradient concentrations of NSBSO, NCSBSO, NS or BSO for another 12 h or 24 h. Afterward, cck-8 reagent was added to each well. And the 96-well plates were incubated for another 3 h at 37 °C and followed by determining the absorbance at 450 nm utilizing a microplate reader (Thermo, USA). IC50 values of NSBSO against different cells were conducted using GraphPad Prism 8 software. Additionally, in order to determine the cell cytotoxicity of NSBSO after treatment with various inhibitors or GSH, the cells were pretreated with inhibitors for 24 h or GSH (0, 1, 2.5 and 5 mM) for 12 h before NSBSO treatment.

A549 cells = format: cell-based, human
Procedure: as §1, with “treatment. The human breast adenocarcinoma cell line (MCF-7 cells), mouse melanoma cell line (B16 cells), human lung cancer line (A549 cells), mouse breast cancer cell line (4T1 cells), murine colon carcinoma cell line (CT26 cells) and mouse embryonic fibroblast cell line (3T3 cells) were used for research. MCF-7 and 3T3 cells were cultured in DMEM culture medium supplemented with 10% FBS and 1% penicillin/streptomycin (pen/strep) at 37 °C in 5% CO2. B16, A549, 4T1 and CT26 cells were cultured in RPMI Medium 1640 basic supplemented with 10% FBS and 1% penicillin/streptomycin (pen/strep) at 37 °C in 5% CO2.” for “treatment.”

MCF-7 cells = format: cell-based, human
Procedure: as §1, with “treatment. The human breast adenocarcinoma cell line (MCF-7 cells), mouse melanoma cell line (B16 cells), human lung cancer line (A549 cells), mouse breast cancer cell line (4T1 cells), murine colon carcinoma cell line (CT26 cells) and mouse embryonic fibroblast cell line (3T3 cells) were used for research. MCF-7 and 3T3 cells were cultured in DMEM culture medium supplemented with 10% FBS and 1% penicillin/streptomycin (pen/strep) at 37 °C in 5% CO2. B16, A549, 4T1 and CT26 cells were cultured in RPMI Medium 1640 basic supplemented with 10% FBS and 1% penicillin/streptomycin (pen/strep) at 37 °C in 5% CO2.” for “treatment.”

CT26 cells = format: cell-based, murine
Procedure: as §1, with “treatment. The human breast adenocarcinoma cell line (MCF-7 cells), mouse melanoma cell line (B16 cells), human lung cancer line (A549 cells), mouse breast cancer cell line (4T1 cells), murine colon carcinoma cell line (CT26 cells) and mouse embryonic fibroblast cell line (3T3 cells) were used for research. MCF-7 and 3T3 cells were cultured in DMEM culture medium supplemented with 10% FBS and 1% penicillin/streptomycin (pen/strep) at 37 °C in 5% CO2. B16, A549, 4T1 and CT26 cells were cultured in RPMI Medium 1640 basic supplemented with 10% FBS and 1% penicillin/streptomycin (pen/strep) at 37 °C in 5% CO2.” for “treatment.”

B16 cells [2] = format: cell-based, mouse
Procedure: as §1, with “treatment. The human breast adenocarcinoma cell line (MCF-7 cells), mouse melanoma cell line (B16 cells), human lung cancer line (A549 cells), mouse breast cancer cell line (4T1 cells), murine colon carcinoma cell line (CT26 cells) and mouse embryonic fibroblast cell line (3T3 cells) were used for research. MCF-7 and 3T3 cells were cultured in DMEM culture medium supplemented with 10% FBS and 1% penicillin/streptomycin (pen/strep) at 37 °C in 5% CO2. B16, A549, 4T1 and CT26 cells were cultured in RPMI Medium 1640 basic supplemented with 10% FBS and 1% penicillin/streptomycin (pen/strep) at 37 °C in 5% CO2.” for “treatment.”

3T3 cells = format: cell-based, mouse
Procedure: as §1, with “treatment. The human breast adenocarcinoma cell line (MCF-7 cells), mouse melanoma cell line (B16 cells), human lung cancer line (A549 cells), mouse breast cancer cell line (4T1 cells), murine colon carcinoma cell line (CT26 cells) and mouse embryonic fibroblast cell line (3T3 cells) were used for research. MCF-7 and 3T3 cells were cultured in DMEM culture medium supplemented with 10% FBS and 1% penicillin/streptomycin (pen/strep) at 37 °C in 5% CO2. B16, A549, 4T1 and CT26 cells were cultured in RPMI Medium 1640 basic supplemented with 10% FBS and 1% penicillin/streptomycin (pen/strep) at 37 °C in 5% CO2.” for “treatment.”

4T1 cells [3] = format: cell-based, mouse
Procedure: as §1, with “treatment. The human breast adenocarcinoma cell line (MCF-7 cells), mouse melanoma cell line (B16 cells), human lung cancer line (A549 cells), mouse breast cancer cell line (4T1 cells), murine colon carcinoma cell line (CT26 cells) and mouse embryonic fibroblast cell line (3T3 cells) were used for research. MCF-7 and 3T3 cells were cultured in DMEM culture medium supplemented with 10% FBS and 1% penicillin/streptomycin (pen/strep) at 37 °C in 5% CO2. B16, A549, 4T1 and CT26 cells were cultured in RPMI Medium 1640 basic supplemented with 10% FBS and 1% penicillin/streptomycin (pen/strep) at 37 °C in 5% CO2.” for “treatment.”

in vitro = details: serum
B16 cells [4] = assay: Rescue of NSBSO-induced cell death by inhibitors, B16 cells; format: cell-based, mouse; details: inhibitor pretreated 24 h, NSBSO 12 h, cck-8
Procedure: as §1

GPX4 = assay: Intracellular GPX4 activity assay in 4T1 cell lysates; format: cell-based, mouse; details: 10 μM, 6 h, t-BuOOH as substrate
Procedure: 4T1 cells were all seeded in the density of 1 × 10^6 cells per dish in 6-cm dishes for 24 h. Upon completion of incubation with different treatments for 6 h, the cell lysates were collected and quantified by a detergent compatible bradford protein assay kit. The intracellular GPX activity was measured through a cellular glutathione peroxidase assay kit on the basis of the manufacturer’s instructions.

Compound: Cbz-Val-Ala-Asp-CH2F
- rescue of NSBSO-induced cell death (4T1 cells [1]; NSBSO 5 μM, 24 h, cck-8): scarcely rescued

- IC50 (A549 cells; 12 h): 7.56 µM
- IC50 (A549 cells; 24 h): 1.22 µM
- IC50 (MCF-7 cells; 12 h): 4.43 µM
- IC50 (MCF-7 cells; 24 h): 1.07 µM
- IC50 (CT26 cells; 12 h): > 100 µM
- IC50 (CT26 cells; 24 h): > 100 µM
- IC50 (B16 cells [2]; 12 h): 1.98 µM
- IC50 (B16 cells [2]; 24 h): 0.844 µM
- IC50 (4T1 cells [3]; 12 h): 10.9 µM
- IC50 (4T1 cells [3]; 24 h): 4.74 µM
- remaining at 2 h, 400 μM (in vitro): > 80%
- remaining at 24 h, 400 μM (in vitro): > 50%
Compound: CCCCS(=N)(=O)CC[C@H](NC(=O)[C@H](CC(=O)O)NC(=O)[C@@H](NC(=O)[C@H](CCC(=O)O)NC(=O)[C@H](CC(=O)O)NC(=O)CCC(=O)NCCSSCCNC(=O)[C@H](Cc1ccc(O)cc1)NC(=O)[C@@H](Cc1ccccc1)NC(=O)[C@@H](Cc1ccccc1)NC(=O)Cc1ccc2ccccc2c1)C(C)C)C(=O)O (stereo partly drawn) [NSBSO, Nap-^DF^DFY-CS-DEVD-BSO]
- cytotoxicity (B16 cells [2]): concentration-dependent cytotoxicity
- IC50 (3T3 cells; 12 h): > 100 µM
- IC50 (3T3 cells; 24 h): > 100 µM
- cytotoxicity (4T1 cells [3]): concentration-dependent cytotoxicity

Compound: Ac-DEVD-CHO
- rescue of NSBSO-induced cell death (B16 cells [4]): better rescued

Compound: CCCCS(=N)(=O)CC[C@H](N)C(=O)O (stereo partly drawn) [BSO, L-buthionine-sulfoximine, reference compound]
- cytotoxicity (B16 cells [2]): did not show obvious cytotoxicity
- cytotoxicity (4T1 cells [3]): did not show obvious cytotoxicity
- activity of GPX4 (rate of NADPH oxidation, 340 nm) (GPX4): suppressed to varying degrees

Compound: CCOC(=O)c1ccc(NC2CCCCC2)c(N)c1 [Fer-1, ferrostatin-1]
- rescue of NSBSO-induced cell death (B16 cells [4]): did not markedly alleviate
- rescue of NSBSO-induced cell death (4T1 cells [1]; Fer-1 0.5 μM pretreated 24 h before NSBSO treatment, cck-8, n = 4): 42.13%

Compound: CC(C)[C@H](NC(=O)[C@H](CCC(=O)O)NC(=O)[C@H](CC(=O)O)NC(=O)CCC(=O)NCCSSCCNC(=O)[C@H](Cc1ccc(O)cc1)NC(=O)[C@@H](Cc1ccccc1)NC(=O)[C@@H](Cc1ccccc1)NC(=O)Cc1ccc2ccccc2c1)C(=O)N[C@@H](CC(=O)O)C(=O)O [NS, Nap-^DF^DFY-CS-DEVD]
- cytotoxicity (B16 cells [2]): concentration-dependent cytotoxicity
- cytotoxicity (4T1 cells [3]): concentration-dependent cytotoxicity

Compound: CCCCS(=N)(=O)CC[C@H](NC(=O)[C@H](CC(=O)O)NC(=O)[C@@H](NC(=O)[C@H](CCC(=O)O)NC(=O)[C@H](CC(=O)O)NC(=O)CCC(=O)NCCCCCCNC(=O)[C@H](Cc1ccc(O)cc1)NC(=O)[C@@H](Cc1ccccc1)NC(=O)[C@@H](Cc1ccccc1)NC(=O)Cc1ccc2ccccc2c1)C(C)C)C(=O)O (stereo partly drawn) [NCBSO, Nap-^DF^DFY-HDA-DEVD-BSO]
- cytotoxicity (B16 cells [2]): did not show obvious cytotoxicity
- cytotoxicity (4T1 cells [3]): did not show obvious cytotoxicity
